#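 Five compound concentrations were applied to cells in 96-well plates for 48 hours; endpoints were derived by simple linear interpolation of the resulting dose-response curve. The concentration for 50% growth inhibition is given as GI50.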 Activity calls are given as the source filed them. Cut-off read from the data, not from the text of the source: active = GI50 up to about 1.1 µM and inactive = higher.
# Experiments:
# Assay in all cases: inhibition of tumour cell growth, NCI panel, 48 h
# SF-268 = test system: SF-268
# ACHN = test system: ACHN
# SK-MEL-28 = test system: SK-MEL-28
# Malme-3M = test system: Malme-3M
# NCI-H460 = test system: NCI-H460
# SK-MEL-5 = test system: SK-MEL-5
# TK-10 = test system: TK-10
# MCF7 = test system: MCF7
# HL-60 = test system: HL-60
# LOX IMVI = test system: LOX IMVI
# KM12 = test system: KM12
# K562 = test system: K562
# BT-549 = test system: BT-549
# M14 = test system: M14
# NCI-H23 = test system: NCI-H23
# 786-0 = test system: 786-0
# SW-620 = test system: SW-620
# COLO 205 = test system: COLO 205
# CCRF-CEM = test system: CCRF-CEM
# RPMI-8226 = test system: RPMI-8226
# A549 = test system: A549
# NCI-H226 = test system: NCI-H226
# U-251 = test system: U-251
# OVCAR-8 = test system: OVCAR-8
# DU-145 = test system: DU-145
# SK-MEL-2 = test system: SK-MEL-2
# SNB-75 = test system: SNB-75
# UACC-62 = test system: UACC-62
# HCT-15 = test system: HCT-15
# OVCAR-4 = test system: OVCAR-4
# MOLT-4 = test system: MOLT-4
# SN12C = test system: SN12C
# UO-31 = test system: UO-31
# SF-295 = test system: SF-295
# OVCAR-5 = test system: OVCAR-5
# NCI-H522 = test system: NCI-H522
# RXF 393 = test system: RXF 393
# MDA-N = test system: MDA-N
# T47D = test system: T47D
# HT-29 = test system: HT-29
# NCI/ADR-RES = test system: NCI/ADR-RES
# IGROV-1 = test system: IGROV-1
# MDA-MB-231 = test system: MDA-MB-231
# SR = test system: SR
# HCT-116 = test system: HCT-116
# SNB-19 = test system: SNB-19
# PC-3 = test system: PC-3
# Hs-578T = test system: Hs-578T
# SF-539 = test system: SF-539
# UACC-257 = test system: UACC-257
# SK-OV-3 = test system: SK-OV-3
# CAKI-1 = test system: CAKI-1
# HCC 2998 = test system: HCC 2998
# HOP-62 = test system: HOP-62
# EKVX = test system: EKVX
# OVCAR-3 = test system: OVCAR-3
# A498 = test system: A498
compound,measurement,setting,value
O=C1c2ccccc2CC12CCC1(CC2)OCCO1,GI50,SF-268,> 100 µM (inactive)
same,GI50,ACHN,> 100 µM (inactive)
same,GI50,SK-MEL-28,> 100 µM (inactive)
same,GI50,Malme-3M,97.9 µM (inactive)
same,GI50,NCI-H460,> 100 µM (inactive)
same,GI50,SK-MEL-5,> 10 µM (inactive)
same,GI50,TK-10,> 100 µM (inactive)
same,GI50,MCF7,> 100 µM (inactive)
same,GI50,HL-60,> 100 µM (inactive)
same,GI50,LOX IMVI,> 100 µM (inactive)
same,GI50,KM12,> 100 µM (inactive)
same,GI50,K562,> 100 µM (inactive)
same,GI50,BT-549,> 100 µM (inactive)
same,GI50,M14,> 100 µM (inactive)
same,GI50,NCI-H23,> 100 µM (inactive)
same,GI50,786-0,> 100 µM (inactive)
same,GI50,SW-620,> 100 µM (inactive)
same,GI50,COLO 205,> 100 µM (inactive)
same,GI50,CCRF-CEM,> 100 µM (inactive)
same,GI50,RPMI-8226,> 100 µM (inactive)
same,GI50,A549,> 100 µM (inactive)
same,GI50,NCI-H226,> 100 µM (inactive)
same,GI50,U-251,> 100 µM (inactive)
same,GI50,OVCAR-8,> 100 µM (inactive)
same,GI50,DU-145,> 100 µM (inactive)
same,GI50,SK-MEL-2,> 100 µM (inactive)
same,GI50,SNB-75,> 100 µM (inactive)
same,GI50,UACC-62,> 100 µM (inactive)
same,GI50,HCT-15,> 100 µM
same,GI50,OVCAR-4,> 100 µM (inactive)
same,GI50,MOLT-4,> 100 µM (inactive)
same,GI50,SN12C,> 100 µM (inactive)
same,GI50,UO-31,> 100 µM (inactive)
same,GI50,SF-295,> 100 µM (inactive)
same,GI50,OVCAR-5,> 100 µM (inactive)
same,GI50,NCI-H522,> 100 µM (inactive)
same,GI50,RXF 393,> 100 µM (inactive)
same,GI50,MDA-N,> 100 µM (inactive)
same,GI50,T47D,> 100 µM (inactive)
same,GI50,HT-29,> 100 µM (inactive)
same,GI50,NCI/ADR-RES,> 100 µM (inactive)
same,GI50,IGROV-1,> 100 µM (inactive)
same,GI50,MDA-MB-231,> 100 µM (inactive)
same,GI50,SR,> 100 µM (inactive)
same,GI50,HCT-116,> 100 µM (inactive)
same,GI50,SNB-19,> 100 µM (inactive)
same,GI50,PC-3,> 100 µM (inactive)
same,GI50,Hs-578T,> 100 µM (inactive)
same,GI50,SF-539,> 100 µM (inactive)
same,GI50,UACC-257,> 100 µM (inactive)
same,GI50,SK-OV-3,> 100 µM (inactive)
same,GI50,CAKI-1,> 100 µM (inactive)
same,GI50,HCC 2998,> 100 µM (inactive)
same,GI50,HOP-62,> 100 µM (inactive)
same,GI50,EKVX,> 100 µM (inactive)
O=C(O)Cc1ccc(N2N=C(c3ccccc3)CC2=O)cc1,GI50,SF-268,> 100 µM (inactive)
same,GI50,ACHN,> 100 µM (inactive)
same,GI50,SK-MEL-28,> 100 µM (inactive)
same,GI50,Malme-3M,18.6 µM (inactive)
same,GI50,NCI-H460,> 100 µM (inactive)
same,GI50,SK-MEL-5,> 100 µM (inactive)
same,GI50,TK-10,> 100 µM (inactive)
same,GI50,MCF7,> 100 µM (inactive)
same,GI50,HL-60,> 100 µM (inactive)
same,GI50,KM12,> 100 µM (inactive)
same,GI50,K562,> 100 µM (inactive)
same,GI50,BT-549,> 100 µM (inactive)
same,GI50,M14,> 100 µM (inactive)
same,GI50,NCI-H23,> 100 µM (inactive)
same,GI50,SW-620,> 100 µM (inactive)
same,GI50,COLO 205,> 100 µM (inactive)
same,GI50,CCRF-CEM,> 100 µM (inactive)
same,GI50,NCI-H226,> 100 µM (inactive)
same,GI50,U-251,> 100 µM (inactive)
same,GI50,OVCAR-8,> 100 µM (inactive)
same,GI50,OVCAR-3,> 100 µM (inactive)
same,GI50,DU-145,> 100 µM (inactive)
same,GI50,SK-MEL-2,23.2 µM (inactive)
same,GI50,SNB-75,> 100 µM (inactive)
same,GI50,UACC-62,> 100 µM (inactive)
same,GI50,HCT-15,> 100 µM
same,GI50,OVCAR-4,> 100 µM (inactive)
same,GI50,MOLT-4,> 100 µM (inactive)
same,GI50,SN12C,> 100 µM (inactive)
same,GI50,UO-31,> 100 µM (inactive)
same,GI50,SF-295,> 100 µM (inactive)
same,GI50,OVCAR-5,> 100 µM (inactive)
same,GI50,NCI-H522,> 100 µM (inactive)
same,GI50,MDA-N,> 100 µM (inactive)
same,GI50,T47D,> 100 µM (inactive)
same,GI50,HT-29,> 100 µM (inactive)
same,GI50,NCI/ADR-RES,> 100 µM (inactive)
same,GI50,IGROV-1,> 100 µM (inactive)
same,GI50,MDA-MB-231,> 100 µM (inactive)
same,GI50,SR,> 100 µM (inactive)
same,GI50,A498,> 100 µM (inactive)
same,GI50,HCT-116,> 100 µM (inactive)
same,GI50,SNB-19,> 100 µM (inactive)
same,GI50,PC-3,> 100 µM (inactive)
same,GI50,Hs-578T,> 100 µM (inactive)
same,GI50,UACC-257,> 100 µM (inactive)
same,GI50,SK-OV-3,> 100 µM (inactive)
same,GI50,CAKI-1,> 100 µM (inactive)
same,GI50,HCC 2998,> 100 µM (inactive)
same,GI50,HOP-62,> 100 µM (inactive)
same,GI50,EKVX,> 100 µM (inactive)

# From ChEMBL document CHEMBL1201862, “PubChem BioAssay data set” (2004)
